Reference: patent US4728649A, “3-oxo-piperazin-1-yl-ergolines exhibiting antidopaminergic activity” (Farmitalia Carlo Erba, priority 1985, dated 1988)

Legend:
[1] = system: central apomorphine-induced climbing; assay: Antagonism to central apomorphine-induced climbing (stereotypes) in mice; assay type: in vivo; conditions: Mus musculus, po; male mice; 60 minutes before 1 mg/kg s.c. apomorphine HCl; evaluated 10 minutes after apomorphine
Excerpt: (§1) Profiles of the central sedative pharmacological activity were obtained by Irwin's observational assessment of mouse behavior (Irwin, S.--Psychopharmacologia, Berl., 13, 222, 1968), which also gives an indication of the orientative acute toxicity after 7 days observation, and by antagonism to the central apomorphine-induced stereotypes (climbing) in mice.
For the antagonism to central apomorphine-induced climbing (Protais, P. et al.--Psychopharmacology, 50, 1, 1976), the compounds were orally administered to male mice, in a dose range between 0.25 and 10 mg/kg, 60 minutes before the subcutaneous injection of 1 mg/kg of apomorphine HCl. The antagonism to apormorphine-induced climbing behavior was evaluated 10 minutes after apomorphine administration.

[2] = Orientative acute toxicity (Irwin's observational assessment of mouse behavior, 7 days observation); conditions: in vivo, po, after 7 days observation
Excerpt: as §1

SMILES	ED50 [1] [mg/kg]	LD50 at 168 h [2] [mg/kg]
CN1C[C@H](CN2CC(=O)NC(=O)C2)C[C@@H]2c3cccc4c3c(cn4C)C[C@H]21 [Example 2, 1,6-Dimethyl-8β-(3,5-dioxo-piperazin-1-ylmethyl)-ergoline]	0.9	300
CN1C[C@H](CN2CC(=O)NC(=O)C2)C[C@@H]2c3cccc4[nH]cc(c34)C[C@H]21 [Example 1, 6-Methyl-8β-(3,5-dioxo-piperazin-1-ylmethyl)-ergoline]	4.4	600
CN1C(=O)CN(C[C@@H]2C[C@@H]3c4cccc5[nH]cc(c45)C[C@H]3N(C)C2)CC1=O [Example 3, 6-Methyl-8β-(3,5-dioxo-4-methyl-piperazin-1-ylmethyl)-ergoline]	2.2	300
CN1C[C@H](CN2CC(=O)NC(=O)C2)C=C2c3cccc4[nH]cc(c34)C[C@H]21 [Example 5, 6-Methyl-9,10-didehydro-8β-(3,5-dioxo-piperazin-1-ylmethyl)-ergoline]	0.5	200
